Among the data in patent US20060223792A1, “Phenyl and pyridyl LTA4H modulators” (priority 2005, published 2006) are IC50 values, retold here.

pIC50: −log10 of the molar value.

In this assay the target is T1, recombinant human LTA4 hydrolase (rhLTA4H) (Homo sapiens, UniProt P09960).
T1 construct: made in house; host or cells: Spodoptera frugiperda (Sf-9) cells, baculovirus (pFastBac1)
T1 sequence (P09960 1-611): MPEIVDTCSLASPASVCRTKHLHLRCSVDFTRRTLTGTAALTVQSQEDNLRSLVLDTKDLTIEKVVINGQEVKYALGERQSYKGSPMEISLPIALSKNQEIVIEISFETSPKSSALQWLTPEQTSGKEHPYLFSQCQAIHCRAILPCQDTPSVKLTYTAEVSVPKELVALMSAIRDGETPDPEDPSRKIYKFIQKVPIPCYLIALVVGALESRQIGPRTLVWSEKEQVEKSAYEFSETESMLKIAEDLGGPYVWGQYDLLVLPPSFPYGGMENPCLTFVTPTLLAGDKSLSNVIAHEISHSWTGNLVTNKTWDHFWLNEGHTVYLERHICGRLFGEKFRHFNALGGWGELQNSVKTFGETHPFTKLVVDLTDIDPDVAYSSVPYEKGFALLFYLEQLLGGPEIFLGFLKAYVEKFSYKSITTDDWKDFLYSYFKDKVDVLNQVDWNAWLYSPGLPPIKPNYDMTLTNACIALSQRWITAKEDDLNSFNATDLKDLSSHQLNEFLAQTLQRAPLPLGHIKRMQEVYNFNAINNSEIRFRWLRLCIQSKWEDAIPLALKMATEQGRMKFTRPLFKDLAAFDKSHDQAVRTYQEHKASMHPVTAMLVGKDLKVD
The assay is described as follows: Recombinant human LTA4 hydrolase assay for LTA4 hydrolase inhibitor activity. Format: biochemical. The following applies: recombinant human LTA4H, LTB4 quantified by enzyme-linked immunoassay; average of one to three determinations; read-out: IC50. Here is the method:
Recombinant Human LTA4 Hydrolase Assay for LTA4 Hydrolase Inhibitor Activity
Compounds of the present invention were tested for LTA4 hydrolase inhibitor activity against recombinant human LTA4 hydrolase (rhLTA4H). Vectors were prepared and used to express rhLTA4H essentially as follows: LTA4 hydrolase encoding DNA was amplified by polymerase chain reaction (PCR) using a human placental cDNA library as a template. Oligonucleotide primers for the PCR reaction were based on the 5′-end, and the complement of the 3′-end, of the published nucleotide sequence for the coding region of the human LTA4 hydrolase gene (C. D. Funk et al., Proc. Natl. Acad. Sci. USA 1987, 84:6677-6681). The amplified […] DNA fragment encoding LTA4 hydrolase was isolated and cloned into the pFastBac1 vector (Invitrogen). Recombinant baculovirus was generated as described by the manufacturer, and used to infect Spodoptera frugiperda (Sf-9) cells. Recombinant LTA4 hydrolase enzyme was purified from the infected Sf-9 cells essentially as described by J. K. Gierse et al. (Protein Expr. Purif. 1993, 4(5):358-366). The purified enzyme solution was adjusted to contain 0.29 mg/mL LTA4 hydrolase, 50 mM Tris (pH 8.0),150 mM NaCl, 5 mM dithiothreitol, 50% glycerol, and EDTA-free Complete protease inhibitor cocktail (Roche). The specific activity of the enzyme was about 3.8 μmol/min/mg.
LTA4 substrate was prepared from the methyl ester of LTA4 (Cayman Chemical) by treatment with 67 equiv. of NaOH under nitrogen at rt for 40 min. The LTA4 substrate in its free acid form was kept frozen at −80° C. until needed. Each compound was diluted to different concentrations in assay buffer (0.1 M potassium phosphate (pH 7.4), 5 mg/mL fatty acid free BSA) containing 10% DMSO. A 25-μL aliquot of each compound dilution was incubated for 10 min at rt with an equal volume of assay buffer containing 36 ng of recombinant human LTA4H. The solution was then adjusted to 200 μL with assay buffer. LTA4 (free acid) was thawed and diluted in assay buffer to a concentration of 357 ng/mL, and 25 μL (9 ng) of LTA4 substrate was added to the reaction mixture (total volume=225 μL) at time zero. Each reaction was carried out at rt for 10 min. The reaction was stopped by diluting 10 μL of the reaction mixture with 200 μL of assay buffer. LTB4 was quantifiedin the diluted sample by a commercially available enzyme-linked immunoassay (Cayman Chemical Co.), as recommended by the manufacturer. Positive controls, under essentially identical conditions but without addition of an inhibitor compound, and negative controls, containing all assay components except enzyme, were routinely run in each experiment. IC50 values were determined by fitting the activity data at different compound concentrations to a 4-parameter equation using the Grafit program (Erithacus software).
The IC50 values presented in the table below should be expected to fall within the typical three-fold variability of assays of this type. The values presented here are, in general, an average of one to three determinations.

Consider `O=C(Nc1ccccc1)Oc1ccc(OCCN2CCC(Cc3ccccc3)CC2)cc1` [Example 50, Phenyl-carbamic acid 4-[2-(4-benzyl-piperidin-1-yl)-ethoxy]-phenyl ester], for which the pIC50 is 7.68.

With `O=C(Nc1ccccc1)Oc1ccc(OCCN2CCC(O)CC2)cc1` [Example 53, Phenyl-carbamic acid 4-[2-(4-hydroxy-piperidin-1-yl)-ethoxy]-phenyl ester], the pIC50 is 8.52.

Consider `O=C(Nc1ccccc1)Oc1ccc(OCCN2CCC(O)(c3ccc(Cl)c(C(F)(F)F)c3)CC2)cc1` [Example 54, Phenyl-carbamic acid 4-{2-[4-(4-chloro-3-trifluoromethyl-phenyl)-4-hydroxy-piperidin-1-yl]-ethoxy}-phenyl ester], for which the pIC50 was 8.15.

With `O=C(Nc1ccccc1)Oc1ccc(OCCN2CCCCCC2)cc1` [Example 55, Phenyl-carbamic acid 4-(2-azepan-1-yl-ethoxy)-phenyl ester], the pIC50 is 9.30.

On to `O=C(Nc1ccccc1)Oc1ccc(OCCN2CCC(O)(c3ccc(Br)cc3)CC2)cc1` [Example 56, Phenyl-carbamic acid 4-{2-[4-(4-bromo-phenyl)-4-hydroxy-piperidin-1-yl]-ethoxy}-phenyl ester], for which the pIC50 was 8.52.

For the compound `O=C(Nc1ccccc1)Oc1ccc(OCCN2CCC(O)(c3ccc(Cl)cc3)CC2)cc1` [Example 57, Phenyl-carbamic acid 4-{2-[4-(4-chloro-phenyl)-4-hydroxy-piperidin-1-yl]-ethoxy}-phenyl ester], the pIC50 is 9.52.

With `O=C(Nc1ccccc1)Oc1ccc(CCN2CCC(O)CC2)cc1` [Example 58, Phenyl-carbamic acid 4-[2-(4-hydroxy-piperidin-1-yl)-ethyl]-phenyl ester], the pIC50 is 8.70.

Turning to `CCN(CCc1ccc(OC(=O)Nc2ccccc2)cc1)C1CCCCC1` [Example 59, Phenyl-carbamic acid 4-[2-(cyclohexyl-ethyl-amino)-ethyl]-phenyl ester], the pIC50 was 9.22.

As for `O=C(Nc1ccccc1)Oc1ccc(CCN2CCCC2)cc1` [Example 60, Phenyl-carbamic acid 4-(2-pyrrolidin-1-yl-ethyl)-phenyl ester], the pIC50 is 8.40.

For `O=C(Nc1ccccc1)Oc1ccc(CCN2CCCCCC2)cc1` [Example 61, Phenyl-carbamic acid 4-(2-azepan-1-yl-ethyl)-phenyl ester], the pIC50 is 8.70.

In the case of `CCCN(CCc1ccc(OC(=O)Nc2ccccc2)cc1)CC1CC1` [Example 62, Phenyl-carbamic acid 4-[2-(cyclopropylmethyl-propyl-amino)-ethyl]-phenyl ester], the pIC50 is 8.40.

With `CCCCN(CCCC)CCc1ccc(OC(=O)Nc2ccccc2)cc1` [Example 63, Phenyl-carbamic acid 4-(2-dibutylamino-ethyl)-phenyl ester], the pIC50 is 9.22.

With `O=C(Nc1cccs1)Oc1ccc(OCCN2CCCCC2)cc1` [Example 65, Thiophen-2-yl-carbamic acid 4-(2-piperidin-1-yl-ethoxy)-phenyl ester], the pIC50 was 8.15.

With `CCOC(=O)C1CCCCN1C1CCN(CCc2ccc(OCCc3ccccc3)cc2)CC1` (stereo not shown) [Example 66, 1′-[2-(4-Phenethyloxy-phenyl)-ethyl]-[1,4′]bipiperidinyl-2-carboxylic acid ethyl ester], the pIC50 is 7.06.

On to `O=C(Oc1ccc(OCCN2CCCCC2)cc1)c1c[nH]c2ccccc12` [Example 68, 1H-Indole-3-carboxylic acid 4-(2-piperidin-1-yl-ethoxy)-phenyl ester], for which the pIC50 was 7.07.

As to `Fc1ccccc1CCOc1ccc(OCCN2CCCCC2)cc1` [Example 70, 1-(2-{4-[2-(2-Fluoro-phenyl)-ethoxy]-phenoxy}-ethyl)-piperidine], the negative logarithm of the IC50 (pIC50) is 7.00.

For `OC(COc1ccc(OCCN2CCCCC2)cc1)c1ccccc1` (stereo not shown) [Example 71, 1-Phenyl-2-[4-(2-piperidin-1-yl-ethoxy)-phenoxy]-ethanol], the pIC50 was 8.30.

Turning to `CCN(CCc1ccc(OCC(=O)c2ccccc2)cc1)C1CCCCC1` [Example 72, 2-{4-[2-(Cyclohexyl-ethyl-amino)-ethyl]-phenoxy}-1-phenyl-ethanone], the pIC50 is 8.00.

Take `CCN(CCc1ccc(OCC(O)c2ccccc2)cc1)C1CCCCC1` (stereo not shown) [Example 73, 2-{4-[2-(Cyclohexyl-ethyl-amino)-ethyl]-phenoxy}-1-phenyl-ethanol]: the pIC50 is 8.00.

As to `Oc1ccc(CCOc2ccc(OCCN3CCCCC3)cc2)cc1` [Example 74, 4-{2-[4-(2-Piperidin-1-yl-ethoxy)-phenoxy]-ethyl}-phenol], the pIC50 is 7.30.

`COC(=O)C1CCN(CCc2ccc(OCC(=O)c3ccccc3)cc2)CC1` [Example 75, 1-{2-[4-(2-Oxo-2-phenyl-ethoxy)-phenyl]-ethyl}-piperidine-4-carboxylic acid methyl ester]: the pIC50 is 7.38.

Regarding `COC(=O)C1CCN(CCc2ccc(OCC(O)c3ccccc3)cc2)CC1` (stereo not shown) [Example 76, 1-{2-[4-(2—hydroxy-2-phenyl-ethoxy)-phenyl]-ethyl}-piperidine-4-carboxylic acid methyl ester], the pIC50 is 8.52.

As to `COC(=O)C1CCN(CCc2ccc(OCCc3ccccc3)cc2)CC1` [Example 77, 1-[2-(4-Phenethyloxy-phenyl)-ethyl]-piperidine-4-carboxylic acid methyl ester], the pIC50 was 8.22.

Take `NC(=O)C1CCN(CCc2ccc(OCC(O)c3ccccc3)cc2)CC1` (stereo not shown) [Example 78, 1-{2-[4-(2-Hydroxy-2-phenyl-ethoxy)-phenyl]-ethyl}-piperidine-4-carboxylic acid amide]: the pIC50 is 8.22.

Take `O=C1CCCCN1C1CCN(CCc2ccc(OCCc3ccccc3)cc2)CC1` [Example 80, 1′-[2-(4-Phenethyloxy-phenyl)-ethyl]-[1,4′]bipiperidinyl-2-one]: the pIC50 was 7.96.

As to `O=C1CCCN1C1CCN(CCOc2ccc(OCCc3ccccc3)cc2)CC1` [Example 82, 1-{1-[2-(4-Phenethyloxy-phenoxy)-ethyl]-piperidin-4-yl}-pyrrolidin-2-one], the pIC50 was 8.22.

For the compound `O=C1CN(CCc2ccc(OCCc3ccccc3)cc2)CCN1` [Example 83, 4-[2-(4-Phenethyloxy-phenyl)-ethyl]-piperazin-2-one], the pIC50 was 7.00.

Take `CCOC(=O)CCNCCc1ccc(OCCc2ccccc2)cc1` [Example 84, 3-[2-(4-Phenethyloxy-phenyl)-ethylamino]-propionic acid ethyl ester]: the pIC50 was 8.00.

For the compound `CCOC(=O)CCN(C)CCc1ccc(OCCc2ccccc2)cc1` [Example 85, 3-{Methyl-[2-(4-phenethyloxy-phenyl)-ethyl]-amino}-propionic acid ethyl ester], the pIC50 is 7.37.

`O=C(O)C1CCN(CCOc2ccc(OCCc3ccccc3)cc2)CC1` [Example 86, 1-[2-(4-Phenethyloxy-phenoxy)-ethyl]-piperidine-4-carboxylic acid]: the pIC50 was 7.77.

With `CCOC(=O)CCN(CCc1ccc(OCCc2ccccc2)cc1)C1CCCCC1` [Example 87, 3-{Cyclohexyl-[2-(4-phenethyloxy-phenyl)-ethyl]-amino}-propionic acid ethyl ester], the pIC50 is 8.30.
